Laboratory results published in ChEMBL document CHEMBL1135299, “Design, synthesis and biological activity of novel non-peptidyl endothelin converting enzyme inhibitors, 1-phenyl-tetrazole-formazan analogues” (Bioorg Med Chem Lett, 2002).

What follows are compounds tested against T1, Endothelin-converting enzyme 1 (Rattus norvegicus, UniProt P42893) (assay: Tested in vitro for inhibition of Endothelin-converting enzyme (ECE) of rat lung membrane).
T1 sequence (P42893 whole entry): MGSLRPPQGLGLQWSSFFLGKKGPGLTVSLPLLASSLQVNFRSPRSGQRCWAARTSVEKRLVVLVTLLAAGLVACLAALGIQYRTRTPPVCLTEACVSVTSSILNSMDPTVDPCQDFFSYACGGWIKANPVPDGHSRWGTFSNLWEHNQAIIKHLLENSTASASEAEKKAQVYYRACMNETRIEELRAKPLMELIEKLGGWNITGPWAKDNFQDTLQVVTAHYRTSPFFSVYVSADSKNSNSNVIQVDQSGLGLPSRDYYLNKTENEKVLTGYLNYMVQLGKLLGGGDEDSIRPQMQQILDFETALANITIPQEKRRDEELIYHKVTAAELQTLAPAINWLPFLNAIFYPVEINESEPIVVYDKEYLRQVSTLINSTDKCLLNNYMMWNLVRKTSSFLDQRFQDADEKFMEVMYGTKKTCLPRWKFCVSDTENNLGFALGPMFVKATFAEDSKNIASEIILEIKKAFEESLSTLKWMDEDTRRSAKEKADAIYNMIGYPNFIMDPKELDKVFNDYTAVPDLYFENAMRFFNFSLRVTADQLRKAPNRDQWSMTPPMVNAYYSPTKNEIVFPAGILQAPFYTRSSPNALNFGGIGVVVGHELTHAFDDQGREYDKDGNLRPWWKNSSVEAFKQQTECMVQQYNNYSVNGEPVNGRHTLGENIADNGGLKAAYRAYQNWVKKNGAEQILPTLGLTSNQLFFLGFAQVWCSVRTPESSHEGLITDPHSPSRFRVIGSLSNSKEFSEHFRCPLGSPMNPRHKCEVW
Format: tissue-based

Row | Structure (SMILES) | IC50 [µM]
1 | CCC(C)c1ccc(N/N=C(\N=N\c2nnnn2-c2ccccc2)c2ccccc2)cc1 (stereo not given) | 2.7
2 | Cc1nn(-c2ccccc2)c(NC(=O)NS(=O)(=O)c2ccc(Cl)cc2)c1C#N | 0.042
3 | c1ccc(N/N=C(\N=N\c2nnnn2-c2ccccc2)c2ccccc2)cc1 | 10
4 | CCc1ccc(N/N=C(\N=N\c2nnnn2-c2ccccc2)c2ccccc2)cc1 | 3.8
5 | CC(C)(C)c1ccc(N/N=C(\N=N\c2nnnn2-c2ccccc2)c2ccccc2)cc1 | 3.8
6 | CCCc1ccc(N/N=C(\N=N\c2nnnn2-c2ccccc2)c2ccccc2)cc1 | 2.6
7 | Cc1ccc(N/N=C(\N=N\c2nnnn2-c2ccccc2)c2ccccc2)cc1 | 8.4
8 | CC(C)c1ccc(N/N=C(\N=N\c2nnnn2-c2ccccc2)c2ccccc2)cc1 | 3.4
9 | c1ccc(C(=N/Nc2ccc(C3CCCCC3)cc2)/N=N/c2nnnn2-c2ccccc2)cc1 | 3.6

Each compound was assayed against T2, Endothelin-converting enzyme 1 (Rattus norvegicus) (UniProt P42893) (assay: Tested in vitro for percent inhibition of Endothelin-converting enzyme (ECE) of rat lung membrane at 10 uM).
T2 sequence (whole entry): T1 sequence (P42893 whole entry)
Format: tissue-based

Row | Structure (SMILES) | inhibition [%]
10 | Clc1ccc(N/N=C(\N=N\c2nnnn2-c2ccccc2)c2ccccc2)cc1 | 37
